System: mouth (panel of three flavorists)
Experiment: Sensory evaluation of cooling strength by a panel of three flavorists
Assay type: in vivo
Conditions: for Cooling strength score of reference standards: reference standards on the scale of 1 to 10, 10 being the strongest
Protocol: The sensory properties of crystalline MLL and liquid products that contain MLL (from Examples 1-5, above) are evaluated by a panel of three flavorists. The standard method involves holding an aqueous solution containing 20 ppm of coolant in the mouth for 30 seconds, then spitting it out and observing and quantifying the cooling effect when compared with a set of reference standards. Based on their cooling strength, the samples are scored on a scale of 1 to 10, with 10 being the strongest. Samples used as reference standards are to monomenthyl glutarate (3.5 on this scale), l-menthyl lactate (4.5) and N-ethyl-3-p-menthane carboxamide, i.e., WS-3 (10). Several coolant “cocktails,” i.e., liquid coolant-mixtures, are prepared, and their sensory properties are evaluated as in Example 6. The compositions and results appear in Table 2.

| SMILES | Cooling strength score of reference standards | Score (cooling strength) (aqueous solution containing 20 ppm of coolant held in the mouth for 30 seconds, scale of 1 to 10, 10 being the strongest, Table 1) | Cooling strength compared with reference coolants (in words) (sensory evaluation) |
| --- | --- | --- | --- |
| CCNC(=O)C1CC(C)CCC1C(C)C (centres unmarked) [WS-3, N-ethyl-3-p-menthane carboxamide] | 10 |  |  |
| CC(C)[C@@H]1CC[C@@H](C)C[C@H]1OC(=O)CCCC(=O)O [monomenthyl glutarate] | 3.5 |  |  |
| CC(C)[C@@H]1CC[C@@H](C)C[C@H]1OC(=O)[C@H](C)OC(=O)[C@H](C)O [Example 6, l-menthyl L-lactoyl-L-lactate] |  | 4.0 | intermediate between that of l-menthyl lactate and monomenthyl glutarate |
| CC(C)[C@@H]1CC[C@@H](C)C[C@H]1OC(=O)[C@H](C)O [l-menthyl lactate] | 4.5 |  |  |

Source: patent publication US7968744B2, “Physiological coolants based on lactoyl esters of menthyl lactate” (Renessenz, LLC, priority 2007, dated 2011)
